Laboratory results as given in US8778966B2, “Quinolinone derivatives as PARP and tank inhibitors” (Janssen Pharmaceutica, NV, priority 2007, dated 2014).

How the values were obtained:
[1] = target: T1, Human PARP-1 enzyme (Homo sapiens, UniProt P09874); experiment: In vitro Scintillation Proximity Assay (SPA) for PARP-1 inhibitory activity; format: biochemical; settings: read-out: in vitro SPA assay PARP-1 pIC50 (converted)
T1 construct: purchased Trevigen
Summary of the method: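 SPA assay: nicked-DNA-activated PARP-1 (0.1–0.2 μg/ml) ADP-ribosylates biotinylated histones (2 μg/ml) using [3H]-NAD+, 20 min at RT in Tris pH 8/DTT/MgCl2, stopped with 2 mM NAD+. Blank-subtracted cpm expressed as % control; IC50 by linear interpolation, reported as pIC50 (10−5 to 3×10−9 M tested).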

[2] = test system: HCT116 cells; experiment: Antiproliferative activity, Alamar Blue assay, HCT116 cells; format: cell-based, human; set-up: key to HCT116 antiproliferative activity pIC50: pIC50 = -log IC50 (IC50: conc. reducing growth to 50% of control); settings: for IC50: Homo sapiens, HCT-116, HCT116 cells, read-out: HCT116 antiproliferative activity pIC50 (converted); for HCT116 antiproliferative activity pIC50: HCT116 cells
Summary of the method: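 HCT116 cells seeded, adhered 24 h, then exposed to compound for 4 days; Alamar Blue (resazurin) added for 4 h at 37 °C, fluorescence read at 540/590 nm. Viability as % of untreated control, triplicate wells; IC50 by probit analysis, reported as pIC50.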

T1 sequence (P09874 whole entry): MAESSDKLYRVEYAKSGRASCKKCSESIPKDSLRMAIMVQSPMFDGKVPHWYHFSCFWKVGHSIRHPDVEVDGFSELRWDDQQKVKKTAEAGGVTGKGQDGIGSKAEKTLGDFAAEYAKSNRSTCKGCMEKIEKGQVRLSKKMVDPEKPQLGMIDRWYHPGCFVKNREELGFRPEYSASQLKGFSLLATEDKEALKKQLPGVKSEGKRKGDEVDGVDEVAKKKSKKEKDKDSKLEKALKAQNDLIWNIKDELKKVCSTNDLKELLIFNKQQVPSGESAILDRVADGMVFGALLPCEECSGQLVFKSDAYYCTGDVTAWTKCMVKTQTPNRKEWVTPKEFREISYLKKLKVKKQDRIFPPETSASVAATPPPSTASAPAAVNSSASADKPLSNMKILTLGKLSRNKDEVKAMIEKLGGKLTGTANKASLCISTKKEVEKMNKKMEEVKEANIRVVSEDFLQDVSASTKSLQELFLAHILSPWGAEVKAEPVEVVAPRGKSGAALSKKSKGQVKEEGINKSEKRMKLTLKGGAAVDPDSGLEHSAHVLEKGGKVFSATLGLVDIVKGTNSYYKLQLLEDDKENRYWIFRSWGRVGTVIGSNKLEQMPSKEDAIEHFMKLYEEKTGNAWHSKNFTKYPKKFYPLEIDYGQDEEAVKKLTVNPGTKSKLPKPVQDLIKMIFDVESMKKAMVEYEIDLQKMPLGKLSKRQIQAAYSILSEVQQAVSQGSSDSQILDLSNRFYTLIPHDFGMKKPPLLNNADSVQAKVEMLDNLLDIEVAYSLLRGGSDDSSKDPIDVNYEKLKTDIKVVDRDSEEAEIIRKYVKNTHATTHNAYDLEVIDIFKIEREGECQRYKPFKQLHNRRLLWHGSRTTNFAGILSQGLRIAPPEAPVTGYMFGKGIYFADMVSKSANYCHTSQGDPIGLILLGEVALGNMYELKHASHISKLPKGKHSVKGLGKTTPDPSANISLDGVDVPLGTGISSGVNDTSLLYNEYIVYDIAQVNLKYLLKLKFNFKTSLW

## Cc1cc2ccc(C(C)(C#N)C3CCc4c(C#N)cccc43)cc2[nH]c1=O (racemic) [Compound 393]
[1]
  IC50: 100 nM
[2]
  IC50: 6310 nM

## CCc1cc2ccc([C@@](C)(C#N)CN(C)Cc3ccc(C#N)cc3)cc2[nH]c1=O (single isomer, unassigned) [Compound 253]
[1]
  IC50: 100 nM
other
  melting point: 116 °C
[2]
  IC50: 63.1 nM

## CCc1cc2ccc(C(C)(C#N)C3CCc4ccc(Br)cc43)cc2[nH]c1=O (single isomer, unassigned) [Compound 380]
[1]
  IC50: 126 nM
[2]
  HCT116 antiproliferative activity pIC50: 5.7

## CCc1cc2ccc(C(C)(C#N)C3CCc4ccc(Br)cc43)cc2[nH]c1=O (single isomer, unassigned) [Compound 381]
[1]
  IC50: 79.4 nM
[2]
  HCT116 antiproliferative activity pIC50: 7.3

## Cc1cc2ccc([C@](C)(C#N)C3CCc4cccnc43)cc2[nH]c1=O (single isomer, unassigned) [Compound 388]
[1]
  IC50: 200 nM
[2]
  IC50: 6310 nM

## CCc1cc2ccc([C@](C)(C#N)[C@H]3CCOc4ccccc43)cc2[nH]c1=O (single isomer, unassigned) [Compound 394]
[1]
  IC50: 200 nM
[2]
  IC50: 7940 nM

## CCc1cc2ccc([C@@](C)(C#N)[C@H]3CCOc4ccccc43)cc2[nH]c1=O (single isomer, unassigned) [Compound 395]
[1]
  IC50: 63.1 nM
[2]
  IC50: 631 nM

## CCc1cc2ccc([C@](C)(C#N)C[C@H]3CCc4ccccc4O3)cc2[nH]c1=O (single isomer, unassigned) [Compound 396]
[1]
  IC50: 100 nM

## CCc1cc2ccc(C(C)(C#N)Cc3cccc(-c4cnn(C)c4)c3)cc2[nH]c1=O (centres unmarked) [Compound 17]
[1]
  IC50: 251 nM
other
  melting point: 170 °C
[2]
  IC50: 2510 nM

## CCc1cc2ccc(C(C)(C#N)Cc3cccc(-c4ccccc4)c3)cc2[nH]c1=O (centres unmarked) [Compound 18]
[1]
  IC50: 2000 nM
other
  melting point: 192 °C
[2]
  IC50: 5010 nM

## CCC(=O)c1cccc(CC(C)(C#N)c2ccc3cc(C)c(=O)[nH]c3c2)c1 (centres unmarked) [Compound 173]
[1]
  IC50: 126 nM
[2]
  IC50: 200 nM

## Cc1cc2ccc(C(C)(C#N)Cc3cccc(Oc4ncccn4)c3)cc2[nH]c1=O (centres unmarked) [Compound 191]
[1]
  IC50: 126 nM
[2]
  IC50: 251 nM

## Cc1cc2ccc(C(C)(C#N)Cc3cccc(Oc4ccccc4)n3)cc2[nH]c1=O (centres unmarked) [Compound 193]
[1]
  IC50: 100 nM
[2]
  IC50: 398 nM

## CCc1cnc(OCCC(C)(C#N)c2ccc3cc(CC)c(=O)[nH]c3c2)nc1 (centres unmarked) [Compound 222]
[1]
  IC50: 50.1 nM
[2]
  IC50: 3160 nM

## CCc1cc2ccc(C(C)(C#N)CCOc3nccc(OC)n3)cc2[nH]c1=O (centres unmarked) [Compound 223]
[1]
  IC50: 50.1 nM
[2]
  IC50: 3980 nM

## Cc1cc2ccc(C(C)(C#N)Cc3cccc(C#N)n3)cc2[nH]c1=O (centres unmarked) [Compound 227]
[1]
  IC50: 100 nM
[2]
  IC50: 501 nM

## Cc1cc2ccc([C@@](C)(C#N)[C@@H]3CCc4cc(Br)ccc43)cc2[nH]c1=O [Compound 240]
[1]
  IC50: 200 nM
[2]
  IC50: 10000 nM

## Cc1cc2ccc([C@@](C)(C#N)[C@H]3CCc4cc(Br)ccc43)cc2[nH]c1=O [Compound 241]
[1]
  IC50: 200 nM
[2]
  IC50: 501 nM

## Cc1cc2ccc([C@](C)(C#N)[C@@H]3CCc4cc(Br)ccc43)cc2[nH]c1=O [Compound 242]
[1]
  IC50: 158 nM
[2]
  IC50: 50.1 nM

## Cc1cc2ccc(C(C)(C#N)C3CCc4cc(Br)ccc43)cc2[nH]c1=O (centres unmarked) [Compound 244]
[1]
  IC50: 200 nM
[2]
  HCT116 antiproliferative activity pIC50: 6.8

## Cc1cc2ccc(C(C)(C#N)C3CCc4c(Br)cccc43)cc2[nH]c1=O (centres unmarked) [Compound 248]
[1]
  IC50: 79.4 nM
[2]
  IC50: 501 nM

## Cc1cc2ccc(C(C)(C#N)C3CCc4ccc(Br)cc43)cc2[nH]c1=O (centres unmarked) [Compound 249]
[1]
  IC50: 126 nM
[2]
  IC50: 158 nM

## Cc1cc2ccc(C(C)(C#N)C3CCc4ccc(C#N)cc43)cc2[nH]c1=O (centres unmarked) [Compound 250]
[1]
  IC50: 100 nM
[2]
  IC50: 200 nM

## C=C(C)c1cccc(CC(C)(C#N)c2ccc3cc(CC)c(=O)[nH]c3c2)c1 (centres unmarked) [Compound 254]
[1]
  IC50: 31.6 nM
[2]
  IC50: 501 nM

## CCc1cc2ccc(C(C#N)(CC)Cc3cccc(C#N)c3)cc2[nH]c1=O (centres unmarked) [Compound 265]
[1]
  IC50: 20 nM
[2]
  IC50: 501 nM

## CCc1cc2ccc(C(C)(C#N)Cc3cc(F)cc(C#N)c3)cc2[nH]c1=O (centres unmarked) [Compound 266]
[1]
  IC50: 50.1 nM
[2]
  IC50: 200 nM

## CCc1cc2ccc(C(C#N)(CC)Cc3cccc(F)c3)cc2[nH]c1=O (centres unmarked) [Compound 270]
[1]
  IC50: 39.8 nM
[2]
  IC50: 1580 nM

## Cc1cc2ccc(C(C)(C#N)CCCCOc3ccccc3)cc2[nH]c1=O (centres unmarked) [Compound 272]
[1]
  IC50: 126 nM
[2]
  IC50: 2000 nM

## Cc1cc2ccc(C(C)(C#N)Cc3cc(F)cc(F)c3)cc2[nH]c1=O (centres unmarked) [Compound 282]
[1]
  IC50: 100 nM
[2]
  IC50: 398 nM

## CCc1cc2ccc(C(C)(C#N)Cc3cc(C)cc(Br)c3)cc2[nH]c1=O (centres unmarked) [Compound 284]
[1]
  IC50: 31.6 nM
[2]
  IC50: 158 nM

## CCc1cc2ccc(C(C#N)(CC)Cc3cccc(OC)c3)cc2[nH]c1=O (centres unmarked) [Compound 287]
[1]
  IC50: 39.8 nM
[2]
  IC50: 1260 nM

## CCc1cc2ccc(C(C)(C#N)CN(C)CCc3cn(C)c4ccccc34)cc2[nH]c1=O (centres unmarked) [Compound 303]
[1]
  IC50: 63.1 nM
[2]
  IC50: 1580 nM

## Cc1cc2ccc(C(C)(C#N)Cc3cccc(Oc4ccccn4)c3)cc2[nH]c1=O (centres unmarked) [Compound 304]
[1]
  IC50: 100 nM
[2]
  IC50: 251 nM

## CCOc1cc(N(C)C)nc(CC(C)(C#N)c2ccc3cc(CC)c(=O)[nH]c3c2)n1 (centres unmarked) [Compound 312]
[1]
  IC50: 39.8 nM
[2]
  IC50: 501 nM

## CCOc1cc(C#N)nc(CC(C)(C#N)c2ccc3cc(CC)c(=O)[nH]c3c2)n1 (centres unmarked) [Compound 315]
[1]
  IC50: 63.1 nM
[2]
  IC50: 631 nM

## CCc1cc2ccc(C(C#N)(CC)Cc3nc(C#N)cc(OC)n3)cc2[nH]c1=O (centres unmarked) [Compound 316]
[1]
  IC50: 39.8 nM
[2]
  IC50: 631 nM

## CCc1cc2ccc(C(C#N)(CC)Cc3nc(OC)cc(OC)n3)cc2[nH]c1=O (centres unmarked) [Compound 321]
[1]
  IC50: 79.4 nM
[2]
  IC50: 316 nM

## CCc1cc2ccc(C(C)(C#N)Cc3ccnc(C#N)c3)cc2[nH]c1=O (centres unmarked) [Compound 324]
[1]
  IC50: 39.8 nM
[2]
  IC50: 3160 nM

## CCc1cc2ccc(C(C)(C#N)Cc3cc(C)nc(Cl)c3)cc2[nH]c1=O (centres unmarked) [Compound 326]
[1]
  IC50: 63.1 nM
[2]
  IC50: 794 nM

## CCc1cc2ccc(C(C)(C#N)Cc3cc(C)nc(C#N)c3)cc2[nH]c1=O (centres unmarked) [Compound 328]
[1]
  IC50: 63.1 nM
[2]
  IC50: 501 nM

## CCc1cc2ccc(C(C)(C#N)Cc3ccnc(F)c3)cc2[nH]c1=O (centres unmarked) [Compound 330]
[1]
  IC50: 39.8 nM
[2]
  IC50: 5010 nM

## CCc1cc2ccc(C(C)(C#N)Cc3cccc(F)n3)cc2[nH]c1=O (centres unmarked) [Compound 331]
[1]
  IC50: 31.6 nM
[2]
  IC50: 631 nM

## CCc1cc2ccc([C@](C)(C#N)Cc3cc(F)cc(F)c3)cc2[nH]c1=O [Compound 333]
[1]
  IC50: 31.6 nM
[2]
  IC50: 10000 nM

## CCc1cc2ccc(C(C)(C#N)Cc3ccc(C(F)(F)F)nc3C)cc2[nH]c1=O (centres unmarked) [Compound 340]
[1]
  IC50: 100 nM
[2]
  IC50: 3160 nM

## CCc1cc2ccc(C(C)(C#N)Cc3ccnc(Cl)c3)cc2[nH]c1=O (centres unmarked) [Compound 341]
[1]
  IC50: 63.1 nM
[2]
  IC50: 2510 nM

## CCc1cc2ccc(C(C#N)(CC)Cc3cccc(C#N)n3)cc2[nH]c1=O (centres unmarked) [Compound 342]
[1]
  IC50: 79.4 nM
[2]
  IC50: 501 nM

## CCc1cc2ccc(C(C)(C#N)CCOc3ccnc(SC)n3)cc2[nH]c1=O (centres unmarked) [Compound 348]
[1]
  IC50: 79.4 nM
[2]
  IC50: 3160 nM

## CCc1cc2ccc(C(C)(C#N)CCOc3ncc(Br)cn3)cc2[nH]c1=O (centres unmarked) [Compound 349]
[1]
  IC50: 63.1 nM
[2]
  IC50: 631 nM

## CCc1cc2ccc(C(C)(C#N)Cc3nc(C)cc(OC)n3)cc2[nH]c1=O (centres unmarked) [Compound 371]
[1]
  IC50: 100 nM
[2]
  IC50: 316 nM

## CCc1cc2ccc(C(C)(C#N)CN3CCN(c4ncc(Br)cn4)CC3)cc2[nH]c1=O (centres unmarked) [Compound 374]
[1]
  IC50: 100 nM
[2]
  IC50: 501 nM

## CCc1cc2ccc(C(C)(C#N)CN3CCc4ccccc4C3)cc2[nH]c1=O (centres unmarked) [Compound 376]
[1]
  IC50: 158 nM
[2]
  IC50: 2000 nM

## Cc1cc2ccc([C@@](C)(C#N)[C@@H]3CCCc4ccccc43)cc2[nH]c1=O [Compound 382]
[1]
  IC50: 501 nM
[2]
  IC50: 5010 nM

## CCc1cc2ccc(C(C#N)(CC)Cc3cccc(CN)c3)cc2[nH]c1=O (centres unmarked) [Compound 390]
[1]
  IC50: 63.1 nM
[2]
  IC50: 631 nM

## CCc1cc2ccc([C@](C)(C#N)C[C@H]3Cc4ccccc4O3)cc2[nH]c1=O [Compound 397]
[1]
  IC50: 126 nM
[2]
  IC50: 7940 nM

## CCc1cc2ccc(C(C)(C#N)CC3Oc4ccccc4O3)cc2[nH]c1=O (centres unmarked) [Compound 398]
[1]
  IC50: 100 nM
[2]
  IC50: 5010 nM

## CCc1cc2ccc(C(C)(C#N)Cc3cc(F)cc(F)c3)cc2[nH]c1=O (centres unmarked) [Compound 402]
[1]
  IC50: 50.1 nM
[2]
  HCT116 antiproliferative activity pIC50: 6.7

## CCc1cc2ccc(C(C#N)(CC)C3CCc4ccc(OC)cc43)cc2[nH]c1=O (centres unmarked) [Compound 403]
[1]
  IC50: 501 nM
[2]
  IC50: 158 nM

## Cc1cc2ccc([C@@](C)(C#N)[C@H]3CCc4ccc(Br)cc43)cc2[nH]c1=O [Compound 405]
[1]
  IC50: 316 nM
[2]
  IC50: 50.1 nM

## Cc1cc2ccc([C@](C)(C#N)[C@@H]3CCc4ccc(Br)cc43)cc2[nH]c1=O [Compound 406]
[1]
  IC50: 158 nM
[2]
  IC50: 10000 nM

## Cc1cc2ccc([C@](C)(C#N)[C@H]3CCc4ccc(Br)cc43)cc2[nH]c1=O [Compound 407]
[1]
  IC50: 631 nM
[2]
  IC50: 631 nM
